Assay results reported in patent US20230091047A1 (priority 2019, published 2023).
Read-outs that look alike come from different tables or passages of the source.

Key:
HepG2 cells = test: in vitro; type: cell-based
How it was run: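 Luminescent ATP quantitation served as the viability endpoint following a 3- or 4-day incubation with test compounds.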

[1] = test system: HBV (HepG2.117 cell line, inducibly HBV producing); test: Anti-HBV activity: intracellular HBV DNA by real-time PCR in HepG2.117 cells after 3 days of treatment; type: cell-based, hepatitis B virus
How it was run: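 HepG2.117 cells (Tet-off, inducible HBV production) were induced to replicate HBV by doxycycline absence, then treated with serially diluted compound for 3 days. Activity was quantified as intracellular HBV DNA by real-time PCR using an HBV-specific primer set and probe.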

[2] = HepG2 or HepG2.117 cells, ATPlite, 3-days incubation (not marked with *), mean value, read-out: CC50 (μM, mean value)
[3] = HepG2.117 cells, intracellular HBV DNA by real-time PCR, 3 days of treatment, mean value; read-out: EC50 (μM, mean value)
[4] = HepG2.117 cells, 3 days of treatment, intracellular HBV DNA by real-time PCR; mean value; read-out: EC50 (μM, mean value)
[5] = 3-days incubation (unmarked values), HepG2 or HepG2.117 cells, ATPlite, mean value, read-out: CC50 (μM, mean value)

Row | Structure (SMILES) | CC50 (HepG2 cells; [2]) | EC50 [1, 3] | further results
1 | COc1cc(C(=O)NC2CC2)ccc1-n1c(NC(C)C)nc2c(c1=O)C[C@@H](C)N(C(=O)c1ccc(Cl)c(C(F)(F)F)c1)C2 (single isomer, unassigned) [Compound C678b] | 44.1 µM | 0.04 µM | 
2 | CNC(=O)c1ccc(-n2c(NC(C)C)nc3c(c2=O)C[C@@H](C)N(C(=O)c2ccc(Cl)c(C(F)F)c2)C3)c(Cl)c1 (single isomer, unassigned) [Compound C685b] | > 50 µM | 0.03 µM | 
3 | CNC(=O)c1ccc(-n2c(N3CC4CC3C4)nc3c(c2=O)C[C@@H](C)N(C(=O)c2ccc(Cl)c(C(F)(F)F)c2)C3)c(Cl)c1 (single isomer, unassigned) [Compound C701b] |  |  | CC50 (HepG2 cells; 3-days incubation (unmarked values), HepG2 or HepG2.117 cells, ATPlite viability, mean value, read-out: CC50 (μM, mean value)): 25.4 µM; EC50 [1, 4]: 0.03 µM
4 | CC(C)Nc1nc2c(c(=O)n1-c1ccc(S(C)(=O)=O)cc1)C[C@@H](C)N(C(=O)c1ccc(Cl)c(Cl)c1)C2 [Compound C142, (6R)-7-(3,4-dichlorobenzoyl)-3-[4-(methanesulfonyl)phenyl]-6-methyl-2-[(propan-2-yl)amino]-5,6,7,8-tetrahydropyrido[3,4-d]pyrimidin-4(3H)-one] |  |  | CC50 (HepG2 cells; [5]): > 50 µM; EC50 [1, 4]: 0.12 µM
5 | CNC(=O)c1ccc(-n2c(NC(C)C)nc3c(c2=O)C[C@@H](C)N(C(=O)c2ccc(Cl)c(Cl)c2)C3)c(C)c1 [Compound C300b, 4-[(6R)-7-(3,4-dichlorobenzoyl)-6-methyl-4-oxo-2-[(propan-2-yl)amino]-5,6,7,8-tetrahydropyrido[3,4-d]pyrimidin-3(4H)-yl]-N,3-dimethylbenzamide] |  |  | CC50 (HepG2 cells; [5]): > 50 µM; EC50 [1, 4]: 0.09 µM
6 | CNC(=O)c1ccc(-n2c(N[C@@H](C)c3ccccc3)nc3c(c2=O)C[C@@H](C)N(C(=O)c2ccc(Cl)c(Cl)c2)C3)c(Cl)c1 [Compound C386] | > 50 µM | 0.12 µM | 
7 | CNC(=O)c1ccc(-n2c(N[C@@H](C)C3CC3)nc3c(c2=O)C[C@@H](C)N(C(=O)c2ccc(Cl)c(Cl)c2)C3)c(Cl)c1 [Compound C387] | 38 µM | 0.06 µM | 
8 | CC(C)Nc1nc2c(c(=O)n1-c1ccc(-c3ncc[nH]3)cc1Cl)C[C@@H](C)N(C(=O)c1ccc(Cl)c(Cl)c1)C2 [Compound C393] | 24.1 µM |  | EC50 ([1]; Hepatitis B virus, HepG2.117, 72 h, HepG2.117 cells, intracellular HBV DNA by real-time PCR, 3 days of treatment, mean value; read-out: EC50 (μM, mean value)): 0.17 µM
9 | CNC(=O)c1ccc(-n2c(OC(C)C)nc3c(c2=O)C[C@@H](C)N(C(=O)c2ccc(Cl)c(Cl)c2)C3)c(Cl)c1 [Compound C403b] | 31.1 µM | 0.08 µM | 
10 | CNC(=O)c1ccc(-n2c(N[C@H](C)c3ccc(OC(F)F)cc3)nc3c(c2=O)C[C@@H](C)N(C(=O)c2ccc(Cl)c(Cl)c2)C3)cc1 [Compound C411b] | 42.1 µM | 0.07 µM | 
11 | CNC(=O)c1ccc(-n2c(N[C@H]3C[C@@H]3c3ccc(OC)cc3)nc3c(c2=O)C[C@@H](C)N(C(=O)c2ccc(Cl)c(Cl)c2)C3)cc1 [Compound C452b] | > 50 µM | > 10 µM | 
12 | CNC(=O)c1ccc(-n2c(NCc3nc(-c4ccccc4)n[nH]3)nc3c(c2=O)C[C@@H](C)N(C(=O)c2ccc(Cl)c(Cl)c2)C3)cc1 [Compound C538] | > 50 µM | 20.6 µM | 
13 | CNC(=O)c1cnc(-n2c(N[C@@H](C)c3ccc(OC(F)(F)F)cc3)nc3c(c2=O)C[C@@H](C)N(C(=O)c2ccc(Cl)c(Cl)c2)C3)cn1 [Compound C617] | > 50 µM | 0.08 µM | 
14 | CNC(=O)[C@H]1CC[C@@H](n2c(N[C@H](C)c3ccc(OC(F)(F)F)cc3)nc3c(c2=O)C[C@@H](C)N(C(=O)c2ccc(Cl)c(Cl)c2)C3)CC1 [Compound C636, (1R,4s)-4-((R)-7-(3,4-dichlorobenzoyl)-6-methyl-4-oxo-2-(((S)-1-(4-(trifluoromethoxy)phenyl)ethyl)amino)-5,6,7,8-tetrahydropyrido[3,4-d]pyrimidin-3(4H)-yl)-N-methylcyclohexane-1-carboxamide] |  | 0.23 µM | CC50 (HepG2 cells): > 35 µM
